According to patent publication US6369083B1, “2-methoxyimino-2 (pyrinyloxymethyl) phenyl acetamides with polyether derivatives on the pyridine ring” (Dow AgroSciences LLC, priority 1998, dated 2002):

Tests used:
Type in all cases: in vivo
Plasmopara viticola = experiment: Downy Mildew of Grape (PLASVI), 96 hour protectant; conditions: grape vines (cultivar Carignane), sprayed at 100 ppm, inoculated after 96 hours (protectant)
Protocol: Compound Formulation: […] Final treatment volumes were obtained by adding nine volumes 0.05kOO aqueous Tween-20 or Triton X-100, depending upon the pathogen. Downy Mildew of Grape (Plasmogara viticola-[…]) (96 Hour Protectant): Vines (cultivar Carignane) were grown from seed in a soilless peat-based potting mixture (Metromix) until the seedlings were 10-20 cm tall. These plants were then sprayed to run off with the test compound at a rate of 100 ppm. After 96 hours the test plants were inoculated by spraying with an aqueous sporangia suspension of Plasmopara viticola. The plants were then transferred to the greenhouse until disease developed on the untreated control plants. The following table presents the activity of typical compounds of the present invention when evaluated in these experiments. The effectiveness of the test compounds in controlling disease was rated using the following scale: […]

Erysiphe graminis = experiment: Powdery Mildew of Wheat (ERYSGT); conditions: wheat (cultivar Monon), inoculated, sprayed at 25 ppm after 48 hours
Protocol: Compound Formulation: […] Final treatment volumes were obtained by adding nine volumes 0.05kOO aqueous Tween-20 or Triton X-100, depending upon the pathogen. Powdery Mildew of Wheat (Erysiphe graminis-[…]): Wheat (cultivar Monon) was grown in a soilless peat-based potting mixture (Metromix) until the seedlings were 1-2 leaf (BBCH 12). These plants were then inoculated with Erysiphe graminis by dusting spores from stock plants onto the test plants. After 48 hours the plants were sprayed to run off with the test compound at a rate of 25 ppm and then kept in the greenhouse until disease developed on the untreated control plants. The following table presents the activity of typical compounds of the present invention when evaluated in these experiments. The effectiveness of the test compounds in controlling disease was rated using the following scale: […]

Septoria tritici = experiment: Septoria leaf spot (SEPTTR); conditions: wheat (cultivar Monon), sprayed at 100 ppm, inoculated after 24 hours
Protocol: Compound Formulation: […] Final treatment volumes were obtained by adding nine volumes 0.05kOO aqueous Tween-20 or Triton X-100, depending upon the pathogen. Septoria leaf spot (Septoria tritici-[…]): Wheat (cultivar Monon) was grown from seed in a soilless peat-based potting mixture (Metromix) until the seedlings were 1-2 leaf (BECH 12). These plants were then sprayed to run off with the test compound at a rate of 100 ppm. After 24 hours the test plants were inoculated with an aqueous spore suspension of Septoria tritici. The plants were then transferred to the greenhouse until disease developed on the untreated control plants. The following table presents the activity of typical compounds of the present invention when evaluated in these experiments. The effectiveness of the test compounds in controlling disease was rated using the following scale: […]

Structure (SMILES) | PLASVI control of plant disease (Plasmopara viticola) | ERYSGT control of plant disease (Erysiphe graminis) | SEPTTR control of plant disease (Septoria tritici)
CNC(=O)C(=NOC)c1ccccc1COc1cccc(OCc2ccco2)n1 [Compound 8] | ++ (++ = 75-100 % control of plant disease) | − (− = 0-24% control of plant disease) | 
CNC(=O)C(=NOC)c1ccccc1COc1nc(OCc2ccco2)c(Cl)cc1Cl [Compound 4] | − (− = 0-24% control of plant disease) | − (− = 0-24% control of plant disease) | 
CCOc1ccc(Sc2cccc(OCc3ccccc3C(=NOC)C(=O)NC)n2)cc1 [Compound 85] |  |  | − (− = 0-24% control of plant disease)
CCCOCCOc1cccc(OCc2ccccc2C(=NOC)C(=O)NC)n1 [Compound 31] | ++ (++ = 75-100 % control of plant disease) | ++ (++ = 75-100 % control of plant disease) | 
CNC(=O)C(=NOC)c1ccccc1COc1cccc(OCCOCC2CO2)n1 (stereo not drawn) [Compound 74] |  |  | ++ (++ = 75-100 % control of plant disease)
CNC(=O)C(=NOC)c1ccccc1COc1cccc(Sc2ccccc2OC(F)(F)F)n1 [Compound 41] | ++ (++ = 75-100 % control of plant disease) | + (+ = 25-74% control of plant disease) | 
CNC(=O)C(=NOC)c1ccccc1COc1cccc(SCc2ccc(OC)cc2)n1 [Compound 34] | ++ (++ = 75-100 % control of plant disease) | ++ (++ = 75-100 % control of plant disease) | 
CNC(=O)C(=NOC)c1ccccc1COc1cccc(Sc2ccccc2OC)n1 [Compound 42] | ++ (++ = 75-100 % control of plant disease) | ++ (++ = 75-100 % control of plant disease) | 
CCCOc1ccc(Sc2cccc(OCc3ccccc3C(=NOC)C(=O)NC)n2)cc1 [Compound 87] |  | ++ (++ = 75-100 % control of plant disease) | 
CCCCSCCOc1cccc(OCc2ccccc2C(=NOC)C(=O)NC)n1 [Compound 48] | + (+ = 25-74% control of plant disease) | − (− = 0-24% control of plant disease) | 
CCOCCNc1nc(OCc2ccccc2C(=NOC)C(=O)NC)c(Cl)cc1Cl [Compound 23] | ++ (++ = 75-100 % control of plant disease) | ++ (++ = 75-100 % control of plant disease) | 
CNC(=O)C(=NOC)c1ccccc1COc1nc(OCC(C)OC)c(Cl)cc1Cl (stereo not drawn) [Compound 28] | ++ (++ = 75-100 % control of plant disease) | ++ (++ = 75-100 % control of plant disease) | 
CCCOCCOc1cccc(OCc2c(F)cccc2C(=NOC)C(=O)NC)n1 [Compound 59] | ++ (++ = 75-100 % control of plant disease) |  | 
C=CC(COC)Oc1cccc(OCc2ccccc2C(=NOC)C(=O)NC)n1 (stereo not drawn) [Compound 72] |  |  | − (− = 0-24% control of plant disease)
CCCCCOCCOc1cccc(OCc2c(Cl)cccc2C(=NOC)C(=O)NC)n1 [Compound 76] |  |  | ++ (++ = 75-100 % control of plant disease)
CCCOC(C)COc1cccc(OCc2ccccc2C(=NOC)C(=O)NC)n1 (stereo not drawn) [Compound 32] |  | ++ (++ = 75-100 % control of plant disease) | 
CNC(=O)C(=NOC)c1ccccc1COc1cccc(OCC2(C)COC2)n1 [Compound 7] | + (+ = 25-74% control of plant disease) | ++ (++ = 75-100 % control of plant disease) | 
CNC(=O)C(=NOC)c1ccccc1COc1cccc(Sc2cccs2)n1 [Compound 15] | ++ (++ = 75-100 % control of plant disease) | ++ (++ = 75-100 % control of plant disease) | 
CNC(=O)C(=NOC)c1ccccc1COc1cccc(OCC2CCCO2)n1 (stereo not drawn) [Compound 10] | + (+ = 25-74% control of plant disease) | ++ (++ = 75-100 % control of plant disease) | 
CNC(=O)C(=NOC)c1ccccc1COc1cccc(OCC2COC(C)(C(F)(F)F)O2)n1 (stereo not drawn) [Compound 6] |  | ++ (++ = 75-100 % control of plant disease) | 
CNC(=O)C(=NOC)c1ccccc1COc1cccc(OCCOC)n1 [Compound 25] | ++ (++ = 75-100 % control of plant disease) | ++ (++ = 75-100 % control of plant disease) | 

Structure (SMILES) | PLASVI control of plant disease (Plasmopara viticola) | ERYSGT control of plant disease (Erysiphe graminis) | SEPTTR control of plant disease (Septoria tritici)
CNC(=O)C(=NOC)c1ccccc1COc1cccc(OCCOCc2ccccc2)n1 [Compound 51] | ++ (++ = 75-100 % control of plant disease) | ++ (++ = 75-100 % control of plant disease) | 
CNC(=O)C(=NOC)c1ccccc1COc1nc(OCc2ccco2)c(Cl)cc1Cl [Compound 3] | ++ (++ = 75-100 % control of plant disease) | + (+ = 25-74% control of plant disease) | 
CCOc1cccc(Oc2cccc(OCc3ccccc3C(=NOC)C(=O)NC)n2)c1 [Compound 67] | ++ (++ = 75-100 % control of plant disease) |  | 
CNC(=O)C(=NOC)c1ccccc1COc1nc(OCCOC)c(Cl)cc1Cl [Compound 33] | ++ (++ = 75-100 % control of plant disease) | + (+ = 25-74% control of plant disease) | 
CCOCCOc1cccc(OCc2c(Cl)cccc2C(=NOC)C(=O)NC)n1 [Compound 63] | ++ (++ = 75-100 % control of plant disease) |  | 
CNC(=O)C(=NOC)c1ccccc1COc1cccc(OCC(C)OC)n1 (stereo not drawn) [Compound 30] | ++ (++ = 75-100 % control of plant disease) | ++ (++ = 75-100 % control of plant disease) | 
CCCOCCOc1nc(OCc2ccccc2C(=NOC)C(=O)NC)c(Cl)cc1Cl [Compound 29] | ++ (++ = 75-100 % control of plant disease) | + (+ = 25-74% control of plant disease) | 
CNC(=O)C(=NOC)c1ccccc1COc1cccc(OCC2CCCCO2)n1 (stereo not drawn) [Compound 9] | ++ (++ = 75-100 % control of plant disease) | + (+ = 25-74% control of plant disease) | 
CCCCOCCOc1cccc(OCc2ccccc2C(=NOC)C(=O)NC)n1 [Compound 46] | ++ (++ = 75-100 % control of plant disease) | + (+ = 25-74% control of plant disease) | 
CNC(=O)C(=NOC)c1ccccc1COc1cccc(Sc2ccc(SC)cc2)n1 [Compound 43] | ++ (++ = 75-100 % control of plant disease) | − (− = 0-24% control of plant disease) | 
CNC(=O)C(=NOC)c1ccccc1COc1cccc(OCCOc2ccccc2)n1 [Compound 49] | ++ (++ = 75-100 % control of plant disease) | ++ (++ = 75-100 % control of plant disease) | 
CNC(=O)C(=NOC)c1ccccc1COc1cccc(Sc2nnc(SC)s2)n1 [Compound 12] | − (− = 0-24% control of plant disease) | − (− = 0-24% control of plant disease) | 
CNC(=O)C(=NOC)c1ccccc1COc1cccc(Oc2ccc(OC)cc2)n1 [Compound 38] |  | ++ (++ = 75-100 % control of plant disease) | 
CCSCCSc1cccc(OCc2ccccc2C(=NOC)C(=O)NC)n1 [Compound 50] | ++ (++ = 75-100 % control of plant disease) | − (− = 0-24% control of plant disease) | 
CCSCCOc1cccc(OCc2ccccc2C(=NOC)C(=O)NC)n1 [Compound 45] | ++ (++ = 75-100 % control of plant disease) | + (+ = 25-74% control of plant disease) | 
CCCOCCOc1cccc(OCc2ccccc2C(=NOC)C(=O)NC)n1 [Compound 36] | ++ (++ = 75-100 % control of plant disease) | + (+ = 25-74% control of plant disease) | 
CNC(=O)C(=NOC)c1ccccc1COc1cccc(OCC2COC(C(F)(F)F)(C(F)(F)F)O2)n1 (stereo not drawn) [Compound 11] | ++ (++ = 75-100 % control of plant disease) |  | 
CCCOC(C)COc1nc(OCc2ccccc2C(=NOC)C(=O)NC)c(Cl)cc1Cl (stereo not drawn) [Compound 26] | + (+ = 25-74% control of plant disease) | ++ (++ = 75-100 % control of plant disease) | 
CNC(=O)C(=NOC)c1ccccc1COc1cccc(Sc2cccc(OC)c2)n1 [Compound 39] |  | ++ (++ = 75-100 % control of plant disease) | 
CCCCSCCOc1cccc(OCc2ccccc2C(=NOC)C(=O)NC)n1 [Compound 47] | ++ (++ = 75-100 % control of plant disease) | ++ (++ = 75-100 % control of plant disease) | 
